We go through one compound from patent publication US8853389B2, “Process for refining cefmetazole sodium” (Hainan Lingkang Pharmaceutical Co., Ltd., priority 2011, dated 2014).

A short description of one series: solubility in solvents. It counts as physicochemical. From the text:
Since the solubility of Cefmetazole sodium is high in water but very low in ethanol and even lower in acetone, a mixture of water and ethanol or a mixture of water and acetone is chosen as the solvent to recrystallize Cefmetazole sodium.

The nature of series [1]: appearance of aqueous solution of refined material. It counts as physicochemical. The conditions noted are these: solution of about 0.1 g/mL in water.
The test system of series [2] is broad-spectrum β-lactamase generated by negative bacilli. Conditions: cited from earlier work.
The subject of a further series is Escherichia coli. The conditions noted are these: cited from earlier work.
The next series has as its system Klebsiella pneumoniae. The conditions noted are these: cited from earlier work.
The subject of the next series is Proteus mirabilis. Conditions: cited from earlier work.
The next series has as its system Shigella. The conditions noted are these: cited from earlier work.
For the next series, the system named is Salmonella. The conditions noted are these: cited from earlier work.
A further series concerns Staphylococcus aureus. Conditions: cited from earlier work.
The subject of series [3] is group A hemolytic streptococcus. The conditions noted are these: cited from earlier work.
Series [4] has as its system catarrhal Brenham bacteria. The conditions noted are these: cited from earlier work.
In the next series the test system is Bacteroides fragilis. The conditions noted are these: cited from earlier work.
The subject of another series is Enterobacter. Conditions: cited from earlier work.
Another series deals with Pseudomonas. The conditions noted are these: cited from earlier work.
In series [5] the test system is methicillin-resistant Staphylococcus aureus. Conditions: cited from earlier work.
The subject of the next series is pneumococcus. Conditions: cited from earlier work.
Another series relates to meningococcus. The conditions noted are these: cited from earlier work.

For the compound `CO[C@]1(NC(=O)CSCC#N)C(=O)N2C(C(=O)[O-])=C(CSc3nnnn3C)CS[C@H]21.[Na+]` [Cefmetazole sodium], the solubility result is given as “very low” in “solubility in solvents” (in ethanol) and “high” in the series “solubility in solvents” (in water). Moreover, in series [1], the appearance of solution entry was “clear and colorless”. Besides, the “stability towards β-lactamase” value in [2] is on record as “more stable”. For the same compound, the antibacterial activity result with Escherichia coli is listed as “relatively good activity”; in the series with Klebsiella pneumoniae, “relatively good activity”; with Proteus mirabilis, “relatively good activity”; with Shigella it was “relatively good activity”; with Salmonella, “relatively good activity”; with Bacteroides fragilis it was “good antibacterial activity”. The sensitivity result in the series on Staphylococcus aureus is recorded as “high sensitivity”; in series [3], “high sensitivity”; in [4], “high sensitivity”; with Enterobacter, “low sensitivity or resistance”; in the series with Pseudomonas it was “low sensitivity or resistance”; in series [5], “low sensitivity or resistance”. For the same compound, the sensitivity result with pneumococcus and in the series on meningococcus was “low sensitivity or resistance” throughout.
